Laboratory results reported in patent publication US20190151236A1, “LIPOSOMAL CORTICOSTEROIDS FOR TOPICAL INJECTION IN INFLAMED LESIONS OR AREAS” (ENCELADUS PHARMACEUTICALS B.V., priority 2016, published 2019).
Like-named read-outs stand apart in the source and are kept apart here.

Key:
cataract formation = assay: Cataract formation on slit lamp biomicroscopy on day 31 (LOCS scale) in the rabbit uveitis study; settings: day 31, slit lamp, FIG. 4
Procedure: Clinical examination was performed by 2 masked independent investigators. Slit-lamp biomicroscopy, measurement of intraocular pressure with the Tonopen, photography of the anterior segment and dilated fundal examination with binocular indirect ophthalmoscopy using a 20D lens were performed prior to uveitis induction and at 8 defined time points thereafter (Days 0, 1, 3, 4, 8, 9, 11, 16, 24 and 31). Clinical severity of uveitis was scored by evaluating anterior chamber cells/flares, vitreous haze, and iris vessels. […] The combined anterior segment inflammatory score was defined as the sum of the scores for iris vessels, anterior chamber cells and anterior chamber flare. The presence of cataract was determined on slit lamp biomicroscopy on day 31 and graded based on the LOCS scale.

C[C@]12C=CC(=O)C=C1CC[C@@H]1[C@@H]2[C@@H](O)C[C@@]2(C)[C@H]1CC[C@]2(O)C(=O)COP(=O)(O)O [Free PP, prednisolone phosphate]
Cataract formation (posterior subcapsular cataracts) (cataract formation): trend towards higher rates
Combined anterior segment inflammatory score (experimental uveitis; Day 1 after 1st intravitreal induction, before intervention (baseline), mean ± SD, sum of iris congestion (0-3), anterior chamber cells (0-4), flare (0-3)): 8.6 ± 0.5
Combined anterior segment inflammatory score (experimental uveitis; Day 3, at intervention (baseline, maximum inflammation)): 8.0 ± 0.7
Combined anterior segment inflammatory score (experimental uveitis; Day 4, one day after intervention (single 0.1 ml subconjunctival injection 4 mg/ml, or eye drops 4 drops per day)): 6.0 ± 0.7
Combined anterior segment inflammatory score (experimental uveitis; Day 8, 5 days after intervention, before 2nd intravitreal induction): 3.2 ± 0.4
Combined anterior segment inflammatory score (experimental uveitis; Day 9, 1 day after 2nd intravitreal induction): 8.0 ± 1.2
Combined anterior segment inflammatory score (experimental uveitis; Day 11, 3 days after rechallenge of intravitreal TB antigen): 7.0 ± 2.3
Combined anterior segment inflammatory score (experimental uveitis; Day 16, 2 weeks post treatment): 5.4 ± 1.3
Combined anterior segment inflammatory score (experimental uveitis; Day 24): 2.8 ± 0.4
Combined anterior segment inflammatory score (experimental uveitis; Day 31): 2.2 ± 1.3
